Experimental data as given in patent publication US4061645A, “2-Trichloromethyl-5-methylsulfinyl-1,3,4-thiadiazole” (Schering Aktiengesellschaft, priority 1972, dated 1977).

How the values were obtained:
[1] = tested on: Rhizoctonia solani; assay: Limit concentration of soil-fungicidal effectiveness, Rhizoctonia solani, infested soil seeded with peas (Example 1); assay type: in vivo; details: soil, 480 h, 20 to 23 days, 22°-25° C, read-out: Limit concentration of the fungicidal effectiveness
Method in brief: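 Compound mixed homogeneously into steamed compost soil inoculated with Rhizoctonia solani mycelium, and 25 marrow pea seeds ("Miracle of Kelvedon") sown per concentration without a waiting period. Grown 20 to 23 days at 22°-25° C. Limit concentration is the lowest giving sound, necrosis-free roots and at least 90% germination relative to steamed soil.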

[2] = tested on: Pythium ultimum; assay: Pythium ultimum infested compost soil, marrow peas (Example 2); assay type: in vivo; details: for Weight of fresh plant: 3 weeks; for Number of sound peas after 3 wks.: of 25 grains
Description: Steamed compost soil was inoculated with mycelium of Pythium ultimum.

[3] = tested on: Rhizoctonia solani; assay: Rhizoctonia solani infested compost soil, marrow peas (Example 3); assay type: in vivo; details: for Weight of fresh plant: 3 weeks; for Number of sound peas after 3 wks.: of 25 grains
[4] = tested on: Pythium ultimum; assay: Fungistatic and fungicidal action on Pythium ultimum with varying active ingredient percentages (Example 4); assay type: in vivo
Description: Comparison of the fungistatic and fungicidal action on Pythium ultimum when using preparations with varyng active ingredient percentages on siliceous clay. Steamed compost soil was inoculated with mycelium of Pythium ultimum. After forming a homogeneous mixture of the products with the infested soil, […], the seeding of 25 grains of marrow peas of the variety "Miracle of Kelvedon" per concentration in clay dishes holding 1 liter of soil followed without a waiting period. In the table is stated the fresh number of germinated sound peas, the weight of the fresh plant, and a root evaluation after a cultivation period of three weeks at 22°-25° C.

[5] = tested on: Fusarium oxysporum f. callistephi; assay: Fusarium infested compost soil, Callistephus chinesis seedlings (Example 5); assay type: in vivo; details: of 4 seedlings
Description: Steamed compost soil was inoculated with a spore suspension of Fusarium oxysporum f. callistephi. After homogeneous mixture of the products with the infested soil, the products were present as 20% powder preparations, and after a waiting period of 8 days, there were set out per concentration 4 seedlings of Callistephus chinesis, master aster "Sun Ray" as host plants.

[6] = tested on: Damping-off Fungi; assay: Cotton seed disinfection, normal compost soil (Example 6); assay type: in vivo; details: 100 mg active ingr. per kg of seed; 10% formulation; 15 days
Procedure: Cotton seeds disinfected with 10% formulations were seeded in normal compost soil (Damping-off Fungi), 25 grains per concentration. After a cultivation time of 15 days at 22°-25° C, the number of germinated sound cotton seedlings and their weight as fresh plants were determined.

[7] = tested on: Asperqilus niger; assay: Agar test (Example 7), Aspergillus; assay type: cell-based; details: 10 ppm; 5 days at 22° C; control 100
Method in brief: (§1)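 Compound mixed into sterilised 2% malt extract/1.5% agar before solidification at 10 ppm. Plates inoculated with 100 spores of each fungus; colony diameter (mm) measured after five days at 22° C.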

[8] = tested on: Botrytis cinerea; assay: Agar test (Example 7), Botrytis; assay type: cell-based; details: 10 ppm; 5 days at 22° C; control 100
Method in brief: as §1

[9] = tested on: Colletotrichum gloeosporioides; assay: Agar test (Example 7), Colletotrichum; assay type: cell-based; details: 10 ppm; 5 days at 22° C; control 100
Method in brief: as §1

[10] = tested on: Helminthosporium sativum; assay: Agar test (Example 7), Helminthosporium; assay type: cell-based; details: 10 ppm; 5 days at 22° C; control 100
Method in brief: as §1

[11] = tested on: Stemphylium ilicis; assay: Agar test (Example 7), Stemphylium; assay type: cell-based; details: 10 ppm; 5 days at 22° C; control 100
Method in brief: as §1

[12] = tested on: Meloidogyne incognita; assay: Nematocidal action, infested compost soil, cucumber seeds (Example 8); assay type: in vivo; details: 30 days
Procedure: The products as 20% powder preparations were homogeneously admixed with a compost soil heavily infested by root gal nematodes. Without a waiting period, 20 cucumber seeds per concentration were seeded. After a cultivation time of 30 days at a temperature of 23°-25° C, the nematocidal action was evaluated by counting the root galls formed in the waterbath. The following table states the reduction of attack in percent. In the control, an average of 90 root galls per seedling had formed.

[13] = tested on: Pyrenochaeta lycopersici; assay: Control of Pyrenochaeta lycopersici, corky root disease of the tomato, open field (Example 9); assay type: in vivo; details: 10% granulate
Description: Control of Pyrenochaeta lycopersici, corky root disease of the tomato.
On a naturally invested open field area, 2-dichloromethyl-5-methylsulfonyl-1,3,4-thiadiazole was scattered as a 10% granulate formulation and hoed in 20 cm deep. […] After a reaction period of three weeks, tomato plants of the variety "Ronald-M" which were 8 weeks old were set out at a distance from each other of 50 × 70 cm. The harvest results indicated in the table are average values of 40 plants per lot and refer to harvested ripe tomatoes.

[14] = 10 mg active ingr. per liter of soil
[15] = 20 mg active ingr. per liter of soil
[16] = 30 mg active ingr. per liter of soil
[17] = 5% formulation, 6 mg active ingr. per liter of soil
[18] = 5% formulation, 10 mg active ingr. per liter of soil
[19] = 10% formulation, 6 mg active ingr. per liter of soil
[20] = 10% formulation, 10 mg active ingr. per liter of soil
[21] = 20% formulation, 6 mg active ingr. per liter of soil
[22] = 20% formulation, 10 mg active ingr. per liter of soil
[23] = 10 g active ingr. per square meter
[24] = 20 g active ingr. per square meter

SMILES: CS(=O)(=O)c1nnc(C(Cl)Cl)s1 [Compound 17, 2-dichloromethyl-5-methylsulfonyl-1,3,4-thiadiazole]
- minimal effective concentration [1]: 20 µg/mL
- Weight of fresh plant [2, 14]: 24 g
- Number of sound peas after 3 wks. [2, 14]: 23
- Weight of fresh plant [2, 15]: 22 g
- Number of sound peas after 3 wks. [2, 15]: 24
- Weight of fresh plant [2, 16]: 26 g
- Number of sound peas after 3 wks. [2, 16]: 24
- Weight of fresh plant [3, 14]: 0 g
- Number of sound peas after 3 wks. [3, 14]: 0
- Weight of fresh plant [3, 15]: 14 g
- Number of sound peas after 3 wks. [3, 15]: 23
- Weight of fresh plant [3, 16]: 14 g
- Number of sound peas after 3 wks. [3, 16]: 22
- Number of sound peas after 3 weeks [4, 17]: 12
- Root evaluation (1-4) [4, 17]: 1
- Weight of fresh plant [4, 17]: 9 g
- Number of sound peas after 3 weeks [4, 18]: 24
- Root evaluation (1-4) [4, 18]: 4
- Weight of fresh plant [4, 18]: 20 g
- Number of sound peas after 3 weeks [4, 19]: 24
- Root evaluation (1-4) [4, 19]: 1
- Weight of fresh plant [4, 19]: 15 g
- Number of sound peas after 3 weeks [4, 20]: 22
- Root evaluation (1-4) [4, 20]: 4
- Weight of fresh plant [4, 20]: 24 g
- Number of sound peas after 3 weeks [4, 21]: 22
- Root evaluation (1-4) [4, 21]: 2
- Weight of fresh plant [4, 21]: 17 g
- Number of sound peas after 3 weeks [4, 22]: 24
- Root evaluation (1-4) [4, 22]: 4
- Weight of fresh plant [4, 22]: 16 g
- Number of attacked plants after 3 weeks ([5]; 50 mg active ingredient per liter of soil): 0
- Number of attacked plants after 3 weeks ([5]; 100 mg active ingredient per liter of soil): 0
- Sound plants in % [6]: 100%
- Weight of fresh plant [6]: 23 g
- diameter of the colonies [7]: 0 mm
- diameter of the colonies [8]: 0 mm
- diameter of the colonies [9]: 0 mm
- diameter of the colonies [10]: 0 mm
- diameter of the colonies [11]: 0 mm
- Nematocidal action in % (reduction of attack) ([12]; 40 mg per liter of soil): 90%
- Nematocidal action in % (reduction of attack) ([12]; 60 mg per liter of soil): 94%
- Tomatoes per plant, relative to 0 g [13, 23]: 159%
- Weight of single tomato, relative to 0 g [13, 23]: 110%
- Yield per plant, relative to 0 g [13, 23]: 171%
- Tomatoes per plant, relative to 0 g [13, 24]: 165%
- Weight of single tomato, relative to 0 g [13, 24]: 130%
- Yield per plant, relative to 0 g [13, 24]: 213%
